Assay results taken from ChEMBL document CHEMBL1201862, “PubChem BioAssay data set” (2004).
Active and inactive are the calls of the source.

Experiments:
[1] = MITF Orthogonal Assay: SK-MEL-5 CTG Assay Measured in Cell-Based System Using Plate Reader - 2084-02_Inhibitor_Dose_DryPowder_Activity_Set7.; assay type: functional
[2] = MITF: Counter assay: A375 proliferation Measured in Cell-Based System Using Plate Reader - 2084-03_Inhibitor_Dose_DryPowder_Activity_Set8.; assay type: functional; settings: A-375
[3] = inhibitors of TRPM1-promoter reporter in SK-MEL-5 – cell-based, luciferase, dry powder, set 8, MITF inhibitor project, dose response (AID 624430); assay type: functional
Lethal factor = Lethal factor (Bacillus anthracis, UniProt P15917); assay: High-throughput multiplex microsphere dose response for inhibitors of toxin protease, specifically Lethal Factor protease, compounds from Cherry Pick 02.; assay type: functional; settings: read-out: EC50_MICROM
Chain of Lethal factor (P15917 whole entry): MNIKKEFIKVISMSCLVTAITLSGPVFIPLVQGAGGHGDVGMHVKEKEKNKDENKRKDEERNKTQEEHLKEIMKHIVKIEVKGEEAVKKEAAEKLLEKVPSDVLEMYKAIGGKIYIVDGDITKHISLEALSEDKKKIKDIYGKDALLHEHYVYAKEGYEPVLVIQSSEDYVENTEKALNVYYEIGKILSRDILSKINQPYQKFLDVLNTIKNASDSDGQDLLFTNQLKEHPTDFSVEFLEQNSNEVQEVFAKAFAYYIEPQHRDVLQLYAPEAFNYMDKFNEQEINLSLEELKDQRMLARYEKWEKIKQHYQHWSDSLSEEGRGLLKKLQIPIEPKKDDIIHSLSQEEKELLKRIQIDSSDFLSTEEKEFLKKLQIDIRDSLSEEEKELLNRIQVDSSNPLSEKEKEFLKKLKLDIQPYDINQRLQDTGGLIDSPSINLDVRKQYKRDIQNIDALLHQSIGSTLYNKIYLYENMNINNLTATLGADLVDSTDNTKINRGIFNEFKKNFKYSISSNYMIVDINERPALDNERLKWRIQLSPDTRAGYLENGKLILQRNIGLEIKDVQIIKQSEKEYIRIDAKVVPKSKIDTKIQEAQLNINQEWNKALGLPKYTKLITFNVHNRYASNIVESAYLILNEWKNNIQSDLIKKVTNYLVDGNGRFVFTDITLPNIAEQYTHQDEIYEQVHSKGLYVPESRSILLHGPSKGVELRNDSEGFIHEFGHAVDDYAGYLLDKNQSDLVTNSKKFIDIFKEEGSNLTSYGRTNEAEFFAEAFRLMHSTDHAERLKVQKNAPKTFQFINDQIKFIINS

[4] = target: Botulinum neurotoxin type F (Clostridium botulinum, UniProt P30996); assay: High-throughput multiplex microsphere dose response for inhibitors of toxin protease, specifically Botulinum neurotoxin light chain F protease, compounds from Cherry Pick 02.; assay type: functional; settings: read-out: EC50_MICROM
Chain of Botulinum neurotoxin type F (P30996 1-436 limits assumed): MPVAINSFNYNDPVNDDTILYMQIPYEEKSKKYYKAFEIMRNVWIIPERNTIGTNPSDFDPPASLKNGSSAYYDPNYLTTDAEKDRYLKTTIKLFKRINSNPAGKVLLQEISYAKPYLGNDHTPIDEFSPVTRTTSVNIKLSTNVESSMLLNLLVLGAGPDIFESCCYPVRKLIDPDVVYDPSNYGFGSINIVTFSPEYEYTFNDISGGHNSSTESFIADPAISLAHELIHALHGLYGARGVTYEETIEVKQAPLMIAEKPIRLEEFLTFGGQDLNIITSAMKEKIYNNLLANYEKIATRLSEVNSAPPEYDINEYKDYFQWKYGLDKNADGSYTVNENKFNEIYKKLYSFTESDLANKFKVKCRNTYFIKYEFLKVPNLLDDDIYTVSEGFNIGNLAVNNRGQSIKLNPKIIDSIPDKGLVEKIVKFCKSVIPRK

SUMO-activating enzyme [5] = target: T1, SUMO-activating enzyme (Homo sapiens, UniProt Q9UBT2); assay: blockers of UBC9-mediated SUMO conjugation – biochemical, AlphaScreen, SUMOylation inhibitor project, confirmation (AID 2018); assay type: functional
T1 sequence (Q9UBE0 whole entry): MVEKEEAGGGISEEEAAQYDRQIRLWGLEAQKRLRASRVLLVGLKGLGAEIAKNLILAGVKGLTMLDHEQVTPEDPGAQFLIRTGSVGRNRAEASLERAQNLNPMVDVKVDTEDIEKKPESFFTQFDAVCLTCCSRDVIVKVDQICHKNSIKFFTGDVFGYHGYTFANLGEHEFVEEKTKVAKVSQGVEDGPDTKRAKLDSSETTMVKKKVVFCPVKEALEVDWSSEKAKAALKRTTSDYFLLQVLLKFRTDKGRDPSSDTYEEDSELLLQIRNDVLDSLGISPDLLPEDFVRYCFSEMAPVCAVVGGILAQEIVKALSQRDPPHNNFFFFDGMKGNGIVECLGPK
T1 sequence (Q9UBT2 whole entry): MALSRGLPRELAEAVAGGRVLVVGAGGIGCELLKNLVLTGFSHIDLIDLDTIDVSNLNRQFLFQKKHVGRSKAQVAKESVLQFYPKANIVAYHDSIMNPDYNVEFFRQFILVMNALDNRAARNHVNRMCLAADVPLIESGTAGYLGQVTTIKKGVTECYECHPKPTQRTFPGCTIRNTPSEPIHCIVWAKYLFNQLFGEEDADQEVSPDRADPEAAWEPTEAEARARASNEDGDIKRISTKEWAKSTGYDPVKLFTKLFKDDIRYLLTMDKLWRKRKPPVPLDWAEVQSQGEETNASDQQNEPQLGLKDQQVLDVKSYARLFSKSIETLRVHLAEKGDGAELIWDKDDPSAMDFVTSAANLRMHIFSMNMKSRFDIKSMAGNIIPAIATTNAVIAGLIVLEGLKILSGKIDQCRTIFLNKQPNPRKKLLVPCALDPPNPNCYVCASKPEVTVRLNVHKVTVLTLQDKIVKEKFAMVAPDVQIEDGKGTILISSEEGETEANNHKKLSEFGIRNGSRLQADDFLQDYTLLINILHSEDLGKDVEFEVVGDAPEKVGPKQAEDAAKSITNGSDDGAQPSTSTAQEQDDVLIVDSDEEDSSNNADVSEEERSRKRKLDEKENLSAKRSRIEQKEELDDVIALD

SUMO-activating enzyme [6] = target: T1, SUMO-activating enzyme; assay: blockers of SAE1/SAE2–UBC9 SUMO transfer – biochemical, HTRF, uHTS, primary screen (AID 2006); assay type: protein-complex assay
[7] = target: T2, Carboxy-terminal domain RNA polymerase II polypeptide A small phosphatase 1 (Homo sapiens, UniProt Q9GZU7); assay: CTDSP1 inhibitors, concentration-response, biochemical, absorbance readout, ultra-high-throughput screen actives (AID 540297); assay type: functional
T2 sequence (Q9GZU7 whole entry): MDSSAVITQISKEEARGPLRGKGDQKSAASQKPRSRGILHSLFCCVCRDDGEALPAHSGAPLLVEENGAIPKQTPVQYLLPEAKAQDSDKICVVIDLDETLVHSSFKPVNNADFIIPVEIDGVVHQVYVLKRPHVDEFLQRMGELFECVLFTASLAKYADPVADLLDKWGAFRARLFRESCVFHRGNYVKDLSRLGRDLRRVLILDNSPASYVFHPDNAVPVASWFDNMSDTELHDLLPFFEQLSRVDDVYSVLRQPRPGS

[8] = target: T3, Tyrosine-protein phosphatase non-receptor type 11 (Homo sapiens, UniProt Q06124); assay: PTPN11 enzyme inhibitors – biochemical, selectivity assay for STEP inhibitor project, dose response (AID 602367); assay type: functional; settings: read-out: IC50_Mean
T3 sequence (Q06124 whole entry): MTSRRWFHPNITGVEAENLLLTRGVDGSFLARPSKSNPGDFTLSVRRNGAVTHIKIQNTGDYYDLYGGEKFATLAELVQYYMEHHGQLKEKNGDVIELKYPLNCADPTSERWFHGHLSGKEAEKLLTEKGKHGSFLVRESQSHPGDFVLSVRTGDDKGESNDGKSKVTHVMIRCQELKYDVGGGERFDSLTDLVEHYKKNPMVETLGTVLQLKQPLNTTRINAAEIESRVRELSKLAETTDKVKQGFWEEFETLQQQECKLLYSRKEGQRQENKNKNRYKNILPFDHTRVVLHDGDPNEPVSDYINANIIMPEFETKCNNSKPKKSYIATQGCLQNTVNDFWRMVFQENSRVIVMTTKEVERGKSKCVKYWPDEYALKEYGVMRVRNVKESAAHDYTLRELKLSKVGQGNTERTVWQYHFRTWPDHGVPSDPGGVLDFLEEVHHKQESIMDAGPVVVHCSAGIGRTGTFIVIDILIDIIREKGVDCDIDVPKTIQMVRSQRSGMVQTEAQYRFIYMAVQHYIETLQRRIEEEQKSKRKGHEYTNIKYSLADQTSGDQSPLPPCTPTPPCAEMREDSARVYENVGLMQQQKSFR

[9] = target: T4, Tyrosine-protein phosphatase non-receptor type 5 (Homo sapiens, UniProt P54829); assay: PTPN5 enzyme inhibition – biochemical, fluorescence intensity, uHTS hits, confirmation (AID 602372); assay type: functional; settings: read-out: IC50_Mean
T4 sequence (P54829 whole entry): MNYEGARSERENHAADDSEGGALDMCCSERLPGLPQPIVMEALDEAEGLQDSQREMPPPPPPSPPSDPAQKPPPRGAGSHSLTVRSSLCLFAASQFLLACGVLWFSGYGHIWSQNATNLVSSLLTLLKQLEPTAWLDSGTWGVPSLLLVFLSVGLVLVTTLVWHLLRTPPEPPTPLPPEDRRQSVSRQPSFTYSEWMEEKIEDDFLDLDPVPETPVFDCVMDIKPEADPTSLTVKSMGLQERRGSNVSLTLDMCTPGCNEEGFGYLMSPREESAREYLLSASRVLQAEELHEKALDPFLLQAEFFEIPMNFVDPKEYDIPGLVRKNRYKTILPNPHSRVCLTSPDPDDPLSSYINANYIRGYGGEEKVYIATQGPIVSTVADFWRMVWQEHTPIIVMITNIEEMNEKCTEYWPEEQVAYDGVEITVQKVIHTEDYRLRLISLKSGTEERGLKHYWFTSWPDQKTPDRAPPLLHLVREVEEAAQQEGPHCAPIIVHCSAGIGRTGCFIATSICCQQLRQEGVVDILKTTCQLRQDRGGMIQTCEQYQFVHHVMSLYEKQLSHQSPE

[10] = target: Dual specificity protein phosphatase 3 (Homo sapiens, UniProt P51452); assay: VHR phosphatase inhibition, dose response, selectivity assay for STEP inhibitor project, biochemical (AID 602374); assay type: functional; settings: read-out: IC50_Mean
Chain of Dual specificity protein phosphatase 3 (P51452 whole entry): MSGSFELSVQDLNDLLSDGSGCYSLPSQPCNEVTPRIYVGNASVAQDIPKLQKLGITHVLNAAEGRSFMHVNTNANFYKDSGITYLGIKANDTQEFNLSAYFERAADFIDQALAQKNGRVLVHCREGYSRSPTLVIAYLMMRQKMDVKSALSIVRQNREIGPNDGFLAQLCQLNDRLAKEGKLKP

[11] = target: T5, Small ubiquitin-related modifier 1 (Homo sapiens, UniProt P63165); assay: SUMO1 protein interaction blockers, potency – biochemical, fluorescence polarization, uHTS hits, dose response (AID 624382); assay type: functional; settings: read-out: IC50_Mean
T5 sequence (P63165 whole entry): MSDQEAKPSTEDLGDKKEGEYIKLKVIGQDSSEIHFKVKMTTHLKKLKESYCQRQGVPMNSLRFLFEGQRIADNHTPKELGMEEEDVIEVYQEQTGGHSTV

[12] = target: T5, Small ubiquitin-related modifier 1; assay: SUMO1 protein-protein binding blockers, potency – biochemical, FRET, dose response (AID 624383); assay type: functional; settings: read-out: IC50_Mean
[13] = target: T6, Tyrosine-protein phosphatase non-receptor type 22 (Homo sapiens, UniProt Q9Y2R2); assay: lymphoid phosphatase LYP inhibitors – biochemical, selectivity assay for STEP inhibitor project, dose response (AID 624241); assay type: functional
T6 sequence (Q9Y2R2 whole entry): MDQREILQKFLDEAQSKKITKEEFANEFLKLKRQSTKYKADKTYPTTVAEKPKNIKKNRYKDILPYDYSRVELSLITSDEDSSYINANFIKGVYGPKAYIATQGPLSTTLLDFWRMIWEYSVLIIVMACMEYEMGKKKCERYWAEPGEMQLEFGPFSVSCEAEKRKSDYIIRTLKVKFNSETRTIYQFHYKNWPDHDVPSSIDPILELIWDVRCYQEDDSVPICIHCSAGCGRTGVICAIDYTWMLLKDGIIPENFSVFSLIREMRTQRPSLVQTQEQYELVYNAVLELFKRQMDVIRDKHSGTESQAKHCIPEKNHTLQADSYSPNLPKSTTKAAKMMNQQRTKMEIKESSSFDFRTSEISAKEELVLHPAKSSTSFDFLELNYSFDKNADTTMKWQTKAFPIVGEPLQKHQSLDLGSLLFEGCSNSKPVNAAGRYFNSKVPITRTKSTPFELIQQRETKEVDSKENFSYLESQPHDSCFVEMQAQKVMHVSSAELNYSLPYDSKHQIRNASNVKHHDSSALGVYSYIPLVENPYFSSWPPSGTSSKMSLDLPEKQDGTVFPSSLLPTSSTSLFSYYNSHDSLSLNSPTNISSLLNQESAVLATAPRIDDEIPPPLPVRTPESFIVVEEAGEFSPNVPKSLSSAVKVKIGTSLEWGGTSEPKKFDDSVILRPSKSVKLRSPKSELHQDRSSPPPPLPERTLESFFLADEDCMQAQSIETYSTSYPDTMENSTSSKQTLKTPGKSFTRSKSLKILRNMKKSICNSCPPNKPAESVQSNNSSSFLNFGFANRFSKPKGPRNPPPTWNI

[14] = target: T7, Low molecular weight phosphotyrosine protein phosphatase (Homo sapiens, UniProt P24666); assay type: functional; settings: read-out: IC50_Mean
T7 sequence (P24666 whole entry): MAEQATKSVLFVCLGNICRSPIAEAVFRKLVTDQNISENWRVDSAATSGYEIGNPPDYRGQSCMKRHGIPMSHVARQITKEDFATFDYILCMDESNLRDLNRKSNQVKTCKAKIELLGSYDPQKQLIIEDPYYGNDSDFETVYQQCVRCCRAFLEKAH

Paired box protein Pax-8 = Paired box protein Pax-8 (Homo sapiens, UniProt Q06710); assay: PAX8 transcriptional activity inhibition in RMG-I – RMG-I cells, luciferase, cherry-pick, dose response (AID 687027); assay type: functional, cell-based;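 also: luciferase reporter driven by Pax8 target thyroperoxidase promoter measured by SteadyGlo luminescence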
Chain of Paired box protein Pax-8 (Q06710 whole entry): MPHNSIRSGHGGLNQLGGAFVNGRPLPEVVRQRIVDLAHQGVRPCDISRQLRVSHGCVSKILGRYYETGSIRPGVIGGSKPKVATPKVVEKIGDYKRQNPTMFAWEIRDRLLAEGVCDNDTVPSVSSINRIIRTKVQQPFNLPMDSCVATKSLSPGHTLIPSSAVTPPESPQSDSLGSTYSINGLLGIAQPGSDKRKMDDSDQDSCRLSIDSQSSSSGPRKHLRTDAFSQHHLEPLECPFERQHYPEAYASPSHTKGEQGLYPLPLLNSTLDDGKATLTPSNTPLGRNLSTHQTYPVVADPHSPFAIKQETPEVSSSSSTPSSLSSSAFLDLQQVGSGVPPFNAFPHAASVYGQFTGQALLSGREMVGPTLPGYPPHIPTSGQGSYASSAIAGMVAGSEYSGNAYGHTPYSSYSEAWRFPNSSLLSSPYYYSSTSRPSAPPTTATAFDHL

[15] = inhibitors acting on PAX2 in cells – cell-based, plate reader, dry powder samples, selectivity assay for PAX8 inhibitor project, dose response (AID 743048); assay type: functional;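 also: HEK293 cells carrying a WT1 promoter luciferase reporter driven by expressed Pax2; potency is for inhibition of Pax2 driven reporter signal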
[16] = PAX5 cellular inhibition readout – cell-based, plate reader, dry powder samples, selectivity assay for PAX8 inhibitor project, dose response (AID 743047); assay type: functional;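 also: HEK293 cells carrying a Pax5 driven CD19 promoter luciferase reporter; potency of inhibitors that lower reporter luminescence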
[17] = OV-90 cell viability loss – plate reader, dry powder, SA8, PAX8 inhibitor project, dose response (AID 743149); assay type: functional, cell-based
[18] = Luminescence Cell-Based Dose Retest to Confirm Inhibitors of Cancer Stem Cells. [Related pubchem assays (depositor defined):AID2717, AID2721]; assay type: functional; settings: Homo sapiens
[19] = target: T7, Low molecular weight phosphotyrosine protein phosphatase; assay type: functional; settings: read-out: IC50_Mean; remark: listed apart in the source
cells [20] = assay type: functional, cell-based
[21] = target: Nuclear receptor subfamily 0 group B member 1 (Homo sapiens, UniProt P51843); assay type: functional, cell-based;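 also: HEK293T cells transfected with SF-1 and DAX-1 plus StAR promoter luciferase reporter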
Chain of Nuclear receptor subfamily 0 group B member 1 (P51843 whole entry): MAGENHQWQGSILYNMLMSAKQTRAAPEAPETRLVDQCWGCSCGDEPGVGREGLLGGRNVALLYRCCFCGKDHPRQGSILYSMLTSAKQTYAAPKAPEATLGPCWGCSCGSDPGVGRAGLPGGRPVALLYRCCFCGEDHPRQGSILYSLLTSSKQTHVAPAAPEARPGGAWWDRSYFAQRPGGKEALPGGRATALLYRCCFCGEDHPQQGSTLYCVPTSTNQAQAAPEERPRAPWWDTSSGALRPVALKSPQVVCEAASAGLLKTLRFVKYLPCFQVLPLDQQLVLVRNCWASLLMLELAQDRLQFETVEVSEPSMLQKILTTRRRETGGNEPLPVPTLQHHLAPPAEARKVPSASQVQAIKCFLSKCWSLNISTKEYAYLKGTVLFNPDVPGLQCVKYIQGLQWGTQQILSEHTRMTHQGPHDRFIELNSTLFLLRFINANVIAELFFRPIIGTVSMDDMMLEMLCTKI

Mu-type opioid receptor = Mu-type opioid receptor (Homo sapiens, UniProt P35372); assay type: functional, cell-based;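 also: U2OS cells with beta-arrestin recruitment to OPRM1 by beta-gal complementation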
Chain of Mu-type opioid receptor (P35372 whole entry): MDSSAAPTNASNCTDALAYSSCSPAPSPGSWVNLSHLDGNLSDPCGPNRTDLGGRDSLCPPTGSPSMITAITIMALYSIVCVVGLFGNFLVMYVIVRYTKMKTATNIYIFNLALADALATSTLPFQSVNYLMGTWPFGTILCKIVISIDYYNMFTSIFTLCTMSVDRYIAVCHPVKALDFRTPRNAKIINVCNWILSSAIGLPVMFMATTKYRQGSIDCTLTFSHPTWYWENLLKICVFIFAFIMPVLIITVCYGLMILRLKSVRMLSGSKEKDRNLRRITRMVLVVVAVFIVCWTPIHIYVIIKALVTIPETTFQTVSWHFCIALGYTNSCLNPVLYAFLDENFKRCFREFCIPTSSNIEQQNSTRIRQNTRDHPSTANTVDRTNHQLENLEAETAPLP

[22] = target: 5-hydroxytryptamine receptor 2A (Mus musculus, UniProt P35363); assay type: functional, cell-based;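 also: CHO-K1 cells with tagged receptor and beta-arrestin; agonist potency measured as compound-induced activation of the receptor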
Chain of 5-hydroxytryptamine receptor 2A (P35363 whole entry): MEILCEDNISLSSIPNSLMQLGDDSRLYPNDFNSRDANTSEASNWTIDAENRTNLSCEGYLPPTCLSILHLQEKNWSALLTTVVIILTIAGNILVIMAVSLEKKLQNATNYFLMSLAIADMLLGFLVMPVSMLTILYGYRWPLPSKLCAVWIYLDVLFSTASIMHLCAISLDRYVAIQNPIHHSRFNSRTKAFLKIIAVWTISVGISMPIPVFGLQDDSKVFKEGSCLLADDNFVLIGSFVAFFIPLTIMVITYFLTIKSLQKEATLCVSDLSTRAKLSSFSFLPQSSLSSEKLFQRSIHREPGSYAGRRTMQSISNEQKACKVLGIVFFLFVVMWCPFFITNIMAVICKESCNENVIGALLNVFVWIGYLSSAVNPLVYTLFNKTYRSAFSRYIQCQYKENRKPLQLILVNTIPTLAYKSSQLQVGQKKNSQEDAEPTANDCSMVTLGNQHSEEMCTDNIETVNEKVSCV

Galanin receptor type 3 = Galanin receptor type 3 (Homo sapiens, UniProt O60755); assay: Fluorescence-based cell-based primary high throughput dose response assay to identify antagonists of the Galanin Receptor 3 (GalR3).; assay type: functional
Chain of Galanin receptor type 3 (O60755 whole entry): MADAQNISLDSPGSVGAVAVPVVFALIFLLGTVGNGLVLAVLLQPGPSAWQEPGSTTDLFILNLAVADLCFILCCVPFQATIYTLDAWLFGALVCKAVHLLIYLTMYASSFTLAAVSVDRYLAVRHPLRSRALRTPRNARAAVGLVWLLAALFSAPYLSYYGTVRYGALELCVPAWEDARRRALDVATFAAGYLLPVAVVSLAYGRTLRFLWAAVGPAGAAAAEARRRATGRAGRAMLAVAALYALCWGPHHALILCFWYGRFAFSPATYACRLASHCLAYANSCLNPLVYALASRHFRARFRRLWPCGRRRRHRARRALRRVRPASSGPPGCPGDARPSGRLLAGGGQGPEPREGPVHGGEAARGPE

cells [23] = assay type: functional, cell-based; settings: HEK-CNG

O=C1C=C(NCc2ccc(Cl)cc2)C(=O)c2ccccc21
AC50 [1]: 53.3 µM (active)
AC50 [2]: > 70 µM (inactive)
AC50 [3]: > 70 µM (inactive)

CCCCCCCCC(c1nc2cc(C)c(C)cc2[nH]1)n1c(=O)c(-c2ccccc2Br)nc2ccccc21 (stereo not drawn)
EC50 (Lethal factor): 17.9 µM (active)
EC50 [4]: > 20 µM (inactive)

Cc1c(CC(=O)O)c(=O)oc2c(C)c(OCc3ccc(F)cc3Cl)ccc12
IC50 (SUMO-activating enzyme [5]): > 100 µM (inactive)
IC50 (SUMO-activating enzyme [6]): 12.5 µM (active)
IC50 [7]: 2.17 µM (active)
IC50 [8]: 2.48 µM (active)
IC50 [9]: 5.58 µM (active)
IC50 [10]: 3.68 µM (active)
IC50 [11]: > 66.6 µM (inactive)
IC50 [12]: 15.7 µM (active)
IC50 [13]: 12.7 µM (active)
IC50 [14]: 11.5 µM (active)

COc1ccc(S(=O)(=O)N2CCCCN3[C@H](CO)[C@H](c4ccc(C#CC(C)C)cc4)[C@H]3C2)cc1
AC50 (Paired box protein Pax-8): 10.4 µM (active)
AC50 [15]: 40.7 µM (active)
AC50 [16]: 36.8 µM (active)
AC50 [17]: 65.5 µM (active)

CC(Nc1nc(-c2ccccc2)nc2ccccc12)c1ccccc1 (stereo not drawn)
AC50 [18]: 4.43 µM (active)
IC50 [19]: > 80 µM (inactive)
IC50 [14]: 23.1 µM (inactive)
IC50 (cells [20]): > 67.5 µM (inactive)
IC50 [21]: > 67.5 µM (inactive)

O=C(c1ccco1)N1CCN(Cc2ccc(Br)cc2)CC1
EC50 (Mu-type opioid receptor): 92.4 µM (inactive)
EC50 [22]: 2.24 µM (active)

COC(=O)CSc1nc(N)c(C#N)c(-c2ccc(O)cc2)c1C#N
IC50 (Galanin receptor type 3): > 29.9 µM (inactive)
EC50 (cells [23]): > 29.9 µM (inactive)
